As usually defined, the IC50 is the midpoint of a concentration-inhibition curve.

The target of this test is BCL2 (Homo sapiens, UniProt P10415). As to the kind of experiment: Biacore SPR solution inhibition assay of BCL-2 binding to peptide derivatized sensor surfaces. The settings on record: SPR competition; 56 nM BCL2 pre-equilibrated with compound one hour; biotinylated BAK, BAD and NOXA peptide surfaces; 25° C. From the text: The present method includes utility of a Surface plasmon resonance (SPR)-based biosensor (Biacore™ GE Healthcare, Uppsala, Sweden) to characterize BCL-2 inhibitors.
BCL2, sequence (P10415 whole entry): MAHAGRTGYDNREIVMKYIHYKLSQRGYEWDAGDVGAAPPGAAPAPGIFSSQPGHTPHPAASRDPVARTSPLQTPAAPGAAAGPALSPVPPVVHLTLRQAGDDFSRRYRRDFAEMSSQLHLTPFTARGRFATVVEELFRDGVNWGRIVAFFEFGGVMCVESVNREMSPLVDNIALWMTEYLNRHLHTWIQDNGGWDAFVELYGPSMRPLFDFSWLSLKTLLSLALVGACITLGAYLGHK
Biacore™ utilizes the phenomenon of surface plasmon resonance (SPR) to detect and measure binding interactions. In a typical Biacore experiment, one of the interacting molecules (ligand) is immobilized on a flexible dextran matrix while the interacting partner (analyte) is allowed to flow across that surface. A binding interaction results in an increase in mass on the sensor surface and a corresponding direct change in the refractive index of the medium in the vicinity of the sensor surface. Changes in refractive index or signal are recorded in resonance units (R.U.) Signal changes due to association and dissociation of complexes are monitored in a non-invasive manner, continuously and in real-time, the results of which are reported in the form of a sensorgram. The SPR assay is configured to examine solution inhibition of BCL-2 binding to peptide derivatized sensor surfaces to generate […] values as a measure of inhibitor potency.
Biacore™ A100 (GE Healthcare, Uppsala, Sweden) was used to conduct all experiments reported herein. Sensor surface preparation and all interaction analyses experiments were performed at 25° C. Reagents were purchased from GE Healthcare. Running buffer containing 10 mM Hepes, pH7.4, 150 mM sodium chloride, 1.25 mM Dithiothreitol, 3% Dimethyl sulfoxide and 0.05% polysorbate 20 were utilized throughout all analyses.
Biotinylated BAK, BAD and NOXA peptides were diluted to 10 nM in running buffer and captured onto a sensor surface pre-derivatized with streptavidin (sensor chip SA) to peptide surface densities in the range 50-100 R.U. Peptide captured surfaces were blocked with 500 μM PEO2-Biotin.
Interaction analyses were performed by first equilibrating each sample within a 6 point three fold compound dilution series in the range 16 μM to 0.004 nM with 56 nM BCL2 for one hour during instrument start-up procedures. Protein compound mixtures were then injected over each peptide surface in parallel for 60 seconds at a flow-rate of 30 μL/min. 56 nM BCL2 control samples were also prepared and run at regular intervals during the assay. Surface regeneration was performed at the end of each analysis cycle by two 30 second injections of 10 mM Glycine, pH 2.5, 1M Sodium Chloride, 0.05% polysorbate 20. Samples and control compound samples were run in duplicate and controls are also run at regular intervals during the assay to monitor surface and assay performance.
Data analyses are carried out using Biacore™ A100 evaluation software v1.1 to validate assay quality. Binding level report points were used relative to BCL2 control samples to calculate % inhibition values for each compound protein mixture.
On the technique in general: Surface plasmon resonance follows binding to a sensor surface in real time, without labels.
For the molecule `CN(C)CC[C@H](CSc1ccccc1)Nc1ccc(S(=O)(=O)Nc2ncnc3c2CCN(C2CCN(CC4=C(c5ccc(Cl)cc5)CCC(C)(C)C4)CC2)C3)cc1S(=O)(=O)C(F)(F)F` [Example 10, (R)-N-(7-(1-((2-(4-chlorophenyl)-5,5-dimethylcyclohex-1-enyl)methyl)piperidin-4-yl)-5,6,7,8-tetrahydropyrido[3,4-d]pyrimidin-4-yl)-4-(4-(dimethylamino)-1-(phenylthio)butan-2-ylamino)-3-(trifluoromethylsulfonyl)benzenesulfonamide], the IC50 is 31 nM. On to `CC1(C)CCC(c2ccc(Cl)cc2)=C(CN2CCC(N3CCc4c(ncnc4NS(=O)(=O)c4ccc(N[C@H](CCN5CCOCC5)CSc5ccccc5)c(S(=O)(=O)C(F)(F)F)c4)C3)CC2)C1` [Example 8], for which the IC50 turned out to be 76 nM. `CN(C)CC[C@H](CSc1c(Cl)cccc1Cl)Nc1ccc(S(=O)(=O)Nc2ncnc3c2CCN(C2CCN(Cc4ccccc4-c4ccc(Cl)cc4)CC2)C3)cc1S(=O)(=O)C(F)(F)F` [Example 38, (R)-N-(7-(1-((4′-chlorobiphenyl-2-yl)methyl)piperidin-4-yl)-5,6,7,8-tetrahydropyrido[3,4-d]pyrimidin-4-yl)-4-(1-(2,6-dichlorophenylthio)-4-(dimethylamino)butan-2-ylamino)-3-(trifluoromethylsulfonyl)benzenesulfonamide]: the IC50 was 41 nM. Turning to `CC(c1ccccc1-c1ccc(Cl)cc1)N1CCC(N2CCc3c(nc(C(F)(F)F)nc3NS(=O)(=O)c3ccc(N[C@H](CCN(C)C)CSc4ccccc4Cl)c(S(=O)(=O)C(F)(F)F)c3)C2)CC1` (stereo partly drawn) [Example 34, N-(7-(1-(1-(4′-chlorobiphenyl-2-yl)ethyl)piperidin-4-yl)-2-(trifluoromethyl)-5,6,7,8-tetrahydropyrido[3,4-d]pyrimidin-4-yl)-4-((R)-1-(2-chlorophenylthio)-4-(dimethylamino)butan-2-ylamino)-3-(trifluoromethylsulfonyl)benzenesulfonamide], the IC50 was found to be 99 nM. For `CN(C)CC[C@H](CSc1ccccc1)Nc1ccc(S(=O)(=O)Nc2ncnc3c2CCN(C2CCN(Cc4ccccc4-c4ccc(Cl)cc4)CC2)C3)cc1S(=O)(=O)C(F)(F)F` [Example 11, (R)-N-(7-(1((4′-chlorobiphenyl-2-yl)methyl)piperidin-4-yl)-5,6,7,8-tetrahydropyrido[3,4-d]pyrimidin-4-yl)-4-(4-(dimethylamino)-1-(phenylthio)butan-2-ylamino)-3-(trifluoromethylsulfonyl)benzenesulfonamide], the IC50 stood at 20 nM. The figure for `CC(c1ccccc1-c1ccc(Cl)cc1)N1CCC(N2CCc3c(ncnc3NS(=O)(=O)c3ccc(N[C@H](CCN(C)C)CSc4ccccc4Cl)c(S(=O)(=O)C(F)(F)F)c3)C2)CC1` (stereo partly drawn) [Example 29, N-(7-(1-(1-(4′-chlorobiphenyl-2-yl)ethyl)piperidin-4-yl)-5,6,7,8-tetrahydropyrido[3,4-d]pyrimidin-4-yl)-4-((R)-1-(2-chlorophenylthio)-4-(dimethylamino)butan-2-ylamino)-3-(trifluoromethylsulfonyl)benzenesulfonamide] is 73 nM; for `CN(C)CC[C@H](CSc1ccccc1Cl)Nc1ccc(S(=O)(=O)Nc2ncnc3c2CCN(C2CCN(Cc4ccccc4-c4ccc(Cl)cc4)CC2)C3)cc1S(=O)(=O)C(F)(F)F` [Example 40] it is 32 nM; for `CN(C)CC[C@H](CSc1ccccc1Cl)Nc1ccc(S(=O)(=O)Nc2nc(C(F)(F)F)nc3c2CCN(C2CCN(Cc4ccccc4-c4ccc(Cl)cc4)CC2)C3)cc1S(=O)(=O)C(F)(F)F` [Example 33, (R)-N-(7-(1-((4′-chlorobiphenyl-2-yl)methyl)piperidin-4-yl)-2-(trifluoromethyl)-5,6,7,8-tetrahydropyrido[3,4-d]pyrimidin-4-yl)-4-(1-(2-chlorophenylthio)-4-(dimethylamino)butan-2-ylamino)-3-(trifluoromethylsulfonyl)benzenesulfonamide] it is 73 nM. As to `[2H]C1(N2CCc3c(nc(N(C)C)nc3NS(=O)(=O)c3ccc(N[C@H](CCN4CCN(C)CC4)CSc4ccccc4F)c(S(=O)(=O)C(F)(F)F)c3)C2)CCN(CC2=C(c3ccc(Cl)cc3)CC(C)(C)CC2)CC1` [Example 75, (R)-N-(7-(1-((2-(4-chlorophenyl)-4,4-dimethylcyclohex-1-enyl)methyl)-4-deuteropiperidin-4-yl)-2-(dimethylamino)-5,6,7,8-tetrahydropyrido[3,4-d]pyrimidin-4-yl)-4-(1-(2-fluorophenylthio)-4-(4-methylpiperazin-1-yl)butan-2-ylamino)-3-(trifluoromethylsulfonyl)benzenesulfonamide], the IC50 is 66 nM. For the molecule `[2H]C1(N2CCc3c(ncnc3NS(=O)(=O)c3ccc(N[C@H](CCN4CCCC4)CSc4ccccc4)c(S(=O)(=O)C(F)(F)F)c3)C2)CCN(CC2=C(c3ccc(Cl)cc3)CC(C)(C)CC2)CC1` [Example 85, (R)-N-(7-(1-((2-(4-chlorophenyl)-4,4-dimethylcyclohex-1-enyl)methyl)-4-deuteropiperidin-4-yl)-5,6,7,8-tetrahydropyrido[3,4-d]pyrimidin-4-yl)-4-(1-(phenylthio)-4-(pyrrolidin-1-yl)butan-2-ylamino)-3-(trifluoromethylsulfonyl)benzenesulfonamide], the IC50 was determined as 30 nM. On to `CN(C)CC[C@H](CSc1ccc(F)cc1)Nc1ccc(S(=O)(=O)Nc2ncnc3c2CCN(C2CCN(Cc4ccccc4-c4ccc(Cl)cc4)CC2)C3)cc1S(=O)(=O)C(F)(F)F` [Example 37, N-{7-[1-(4′-Chloro-biphenyl-2-ylmethyl)-piperidin-4-yl]-5,6,7,8-tetrahydro-pyrido[3,4-d]pyrimidin-4-yl}-4-[(R)-3-dimethylamino-1-(4-fluoro-phenylsulfanylmethyl)-propylamino]-3-trifluoromethanesulfonyl-benzenesulfonamide], for which the IC50 came to 58 nM. On to `CN(C)CC[C@H](CSc1ccccc1)Nc1ccc(S(=O)(=O)Nc2ncnc3c2CCN(C2CCC(O)(Cc4ccccc4-c4ccc(Cl)cc4)CC2)C3)cc1S(=O)(=O)C(F)(F)F` (mixture of isomers) [Example 64, (R)-N-(7-(4-((4′-chlorobiphenyl-2-yl)methyl)-4-hydroxycyclohexyl)-5,6,7,8-tetrahydropyrido[3,4-d]pyrimidin-4-yl)-4-(4-(dimethylamino)-1-(phenylthio)butan-2-ylamino)-3-(trifluoromethylsulfonyl)benzenesulfonamide], for which the IC50 was found to be 70 nM. `[2H]C1(N2CCc3c(ncnc3NS(=O)(=O)c3ccc(N[C@H](CCN(C)C(C)C)CSc4ccccc4)c(S(=O)(=O)C(F)(F)F)c3)C2)CCN(Cc2cc(F)ccc2-c2ccc(Cl)cc2)CC1` [Example 84]: the IC50 stood at 73 nM. For `O=[N+]([O-])c1cc(S(=O)(=O)Nc2ncnc3c2CCN(C2CCN(Cc4ccccc4-c4ccc(Cl)cc4)CC2)C3)ccc1N[C@H](CCN1CCOCC1)CSc1ccccc1` [Example 58], the IC50 was found to be 66 nM. Turning to `CN(C)CC[C@H](CSc1cccc(Cl)c1)Nc1ccc(S(=O)(=O)Nc2ncnc3c2CCN(C2CCN(Cc4ccccc4-c4ccc(F)cc4)CC2)C3)cc1S(=O)(=O)C(F)(F)F` [Example 57, N-{7-[1-(4′-Fluoro-biphenyl-2-ylmethyl)-piperidin-4-yl]-5,6,7,8-tetrahydro-pyrido[3,4-d]pyrimidin-4-yl}-4-[(R)-1-(3-chloro-phenylsulfanylmethyl)-3-dimethylamino-propylamino]-3-trifluoromethanesulfonyl-benzenesulfonamide], the IC50 amounted to 99 nM. As to `[2H]C1(N2CCc3c(ncnc3NS(=O)(=O)c3ccc(N[C@H](CCN(C)C(C)C)CSc4ccccc4)c(S(=O)(=O)C(F)(F)F)c3)C2)CCN(CC2=C(c3ccc(Cl)cc3)CC(C)(C)CC2)CC1` [Example 78, N-(7-(1-[2-(4-Chloro-phenyl)-4,4-dimethyl-cyclohex-1-enylmethyl]-4-deutero-piperidin-4-yl)-5,6,7,8-tetrahydro-pyrido[3,4-d]pyrimidin-4-yl)-4-[(R)-3-(isopropyl-methyl-amino)-1-phenylsulfanylmethyl-propylamino]-3-trifluoromethanesulfonyl-benzenesulfonamide], the IC50 is 41 nM.
